Patent US20230167073A1 (Teijin Pharma Limited, priority 2020, published 2023)
pIC50: −log10 of the molar value. Like-named read-outs stand apart in the source and are kept apart here.

Target: T1, Human TRPC6 (Homo sapiens, UniProt Q9Y210)
T1 construct: expressed in transfected cells
T1 sequence (Q9Y210 1-931): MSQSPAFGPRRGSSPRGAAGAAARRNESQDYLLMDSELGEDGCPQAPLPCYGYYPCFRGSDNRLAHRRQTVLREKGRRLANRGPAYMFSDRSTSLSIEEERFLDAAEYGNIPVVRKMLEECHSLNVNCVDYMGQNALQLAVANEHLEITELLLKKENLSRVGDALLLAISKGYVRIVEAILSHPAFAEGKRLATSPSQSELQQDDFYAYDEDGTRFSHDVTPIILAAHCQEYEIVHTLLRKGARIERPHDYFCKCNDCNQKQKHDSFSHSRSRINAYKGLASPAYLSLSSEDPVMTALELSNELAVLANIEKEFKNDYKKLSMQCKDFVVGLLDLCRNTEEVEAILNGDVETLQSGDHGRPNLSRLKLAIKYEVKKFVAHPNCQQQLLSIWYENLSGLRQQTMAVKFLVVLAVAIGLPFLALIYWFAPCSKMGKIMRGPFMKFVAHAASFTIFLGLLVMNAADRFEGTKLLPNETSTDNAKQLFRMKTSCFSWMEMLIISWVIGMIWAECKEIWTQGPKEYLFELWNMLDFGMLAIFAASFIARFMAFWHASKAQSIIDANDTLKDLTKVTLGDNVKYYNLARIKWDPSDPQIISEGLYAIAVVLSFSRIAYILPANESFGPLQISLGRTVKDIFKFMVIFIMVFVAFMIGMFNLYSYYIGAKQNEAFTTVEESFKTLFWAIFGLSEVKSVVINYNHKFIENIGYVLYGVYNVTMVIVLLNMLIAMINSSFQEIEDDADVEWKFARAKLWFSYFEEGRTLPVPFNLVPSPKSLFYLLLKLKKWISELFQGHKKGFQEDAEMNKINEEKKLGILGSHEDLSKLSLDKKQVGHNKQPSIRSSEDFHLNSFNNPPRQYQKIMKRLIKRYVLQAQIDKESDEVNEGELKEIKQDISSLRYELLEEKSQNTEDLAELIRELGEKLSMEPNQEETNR
Test: Evaluation of TRPC6 channel inhibitory activity (1), FLIPR Calcium 5 Assay Kit, OAG stimulation (Compound Nos. 1-1293)
Format: cell-based
Conditions: for IC50: Human TRPC6 stably-expressing cells, OAG 30 μM, FLIPR Calcium 5 Assay Kit, read-out: Inhibitory activity (pIC50 class) (converted)
Summary of the method: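 Calcium influx read by FLIPR fluorescence in cells stably expressing human TRPC6, dye-loaded 30 min. Compounds preincubated 20 min, then OAG stimulation at 30 μM final. Inhibition fitted by four-parameter logistic regression to give pIC50, reported as +/++/+++ categories.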

SMILES	IC50 [nM]	pIC50
Cc1nc(Oc2cc(C#N)ccc2-c2ccc(C3CNC3)cc2)cc(N2CCOCC2)n1 [Compound 52, 4-[4-(azetidin-3-yl)phenyl]-3-(2-methyl-6-morpholin-4-ylpyrimidin-4-yl)oxybenzonitrile]	10 to 1000	–
Cn1nc2c(c1Oc1cc(C#N)ccc1-c1nccc(CN)n1)CCCC2 [compound 685, 4-[4-(aminomethyl)pyrimidin-2-yl]-3-[(2-methyl-4,5,6,7-tetrahydroindazol-3-yl)oxy]benzonitrile]	> 1000	–
Cn1nc(-c2ccccn2)cc1Oc1cc(C#N)ccc1-c1ncc(CNC23CC4CC(CC(C4)C2)C3)cn1 [compound 666, 4-[5-[(1-adamantylamino)methyl]pyrimidin-2-yl]-3-(2-methyl-5-pyridin-2-ylpyrazol-3-yl)oxybenzonitrile]	> 1000	–
Cc1nc(Oc2cc(C#N)ccc2-n2ncc3c2CCC(N)C3O)cc(-c2ccccc2)n1 (stereo not drawn) [Compound 192, 4-(5-amino-4-hydroxy-4,5,6,7-tetrahydroindazol-1-yl)-3-(2-methyl-6-phenylpyrimidin-4-yl)oxybenzonitrile]	10 to 1000	–
Cc1nc(Oc2cc(C#N)ccc2-c2ccc(CCNCCC(=O)O)cc2)cc(N2CCOCC2)n1 [Compound 56, 3-[2-[4-[4-cyano-2-(2-methyl-6-morpholin-4-ylpyrimidin-4-yl)oxyphenyl]phenyl]ethylamino] propanoic acid]	> 1000	–
Cc1nc(Oc2cc(C#N)ccc2-n2cc(C(O)CN)cn2)cc(-c2cccc(Cl)c2)n1 (stereo not drawn) [Compound 159, 4-[4-(2-amino-1-hydroxyethyl)pyrazol-1-yl]-3-[6-(3-chlorophenyl)-2-methylpyrimidin-4-yl]oxybenzonitrile]	< 10	–
N#Cc1ccc(-c2ccc(CCN)cc2)c(Oc2cnnc(O[C@H]3CCC[C@@H]3O)c2)c1 [Compound 124, 4-[4-(2-aminoethyl)phenyl]-3[6-[(1S,2S)-2-hydroxycyclopentyl]oxypyridazin-4-yl]oxybenzonitrile]	10 to 1000	–
Cc1nc(Oc2cc(C#N)ccc2-c2cccc(CCN)c2)cc(N2CCOCC2)n1 [Compound 194, 4-[3-(2-aminoethyl)phenyl]-3-(2-methyl-6-morpholin-4-ylpyrimidin-4-yl)oxybenzonitrile]	> 1000	–
Cc1cc(Oc2cc(C#N)ccc2-c2ccc([C@H](O)CN)cn2)cc(OC2COC2)n1 [compound 591, 4-[5-[(1S)-2-amino-1-hydroxyethyl]pyridin-2-yl]-3-[2-methyl-6-(oxetan-3-yloxy)pyridin-4-yl]oxybenzonitrile]	> 1000	–
Cc1nc(Nc2cc(C#N)ccc2-c2ccc(CCN)cc2)cc(N2CCOCC2)n1 [Compound 2, 4-[4-(2-aminoethyl)phenyl]-3-[(2-methyl-6-morpholin-4-ylpyrimidin-4-yl)amino]benzonitrile]	< 10	–
Cc1cc(Oc2cc(C#N)ccc2-n2cc(C(O)CN)cn2)cc(-c2ccccc2)n1 (stereo not drawn) [Compound 226, 4-[4-(2-amino-1-hydroxyethyl)pyrazol-1-yl]-3-(2-methyl-6-phenylpyridin-4-yl)oxybenzonitrile]	< 10	–
CC(C)CNC(=O)c1cn(Cc2cc(C#N)ccc2-c2ccc(CCN)cc2)cn1 [compound 1114, 1-[[2-[4-(2-aminoethyl)phenyl]-5-cyanophenyl]methyl]-N-(2-methylpropyl)imidazole-4-carboxamide]	> 1000	–
Cn1nc(N2CCCC2)cc1Oc1cc(C#N)ccc1-c1ccc([C@H](O)CN)cn1 [compound 545, 4-[5-[(1S)-2-amino-1-hydroxyethyl]pyridin-2-yl]-3-(2-methyl-5-pyrrolidin-1-ylpyrazol-3-yl)oxybenzonitrile]	10 to 1000	–
Cc1cc(Oc2cc(C#N)ccc2-c2ncc(CCN)cn2)cc(N2C3CCC2CC3)n1 [compound 827, 4-[5-(2-aminoethyl)pyrimidin-2-yl]-3-[2-(7-azabicyclo[2.2.1]heptan-7-yl)-6-methylpyridin-4-yl]oxybenzonitrile]	–	> 8.00
Cc1nc(Oc2cc(C#N)ccc2-n2cc([C@H](O)CN)cn2)cc(-c2ccccc2)n1 [Compound 171, 4-[4-[(1S)-2-amino-1-hydroxyethyl]pyrazol-1-yl]-3-(2-methyl-6-phenylpyrimidin-4-yl)oxybenzonitrile]	< 10	–

More lines, main results first:

IC50 [nM]	SMILES	pIC50
10 to 1000	Cc1nc(Oc2cc(C#N)ccc2-c2ccc(CCN)cc2)cc(-c2cccn2C)n1 [Compound 28, 4-[4-(2-aminoethyl)phenyl]-3-[2-methyl-6-(1-methylpyrrol-2-yl)pyrimidin-4-yl]oxybenzonitrile]	–
< 10	Cc1cc(Oc2cc(C#N)ccc2-c2cnc(CCN)cn2)cc(N2CCOCC2)n1 [compound 388, 4-[5-(2-aminoethyl)pyrazin-2-yl]-3-(2-methyl-6-morpholin-4-ylpyridin-4-yl)oxybenzonitrile]	–
< 10	CCN(CC(F)F)c1cc(C(=O)c2cc(C#N)ccc2-c2ncc(CN)cn2)n(C)n1 [compound 1074, 4-[5-(aminomethyl)pyrimidin-2-yl]-3-[5-[2,2-difluoroethyl(ethyl)amino]-2-methylpyrazole-3-carbonyl]benzonitrile]	–
< 10	CCN(C)c1cc(Oc2cc(C#N)ccc2-c2ncc(CCN)cn2)n(C)n1 [compound 774, 4-[5-(2-aminoethyl)pyrimidin-2-yl]-3-[5-[ethyl(methyl)amino]-2-methylpyrazol-3-yl]oxybenzonitrile]	–
10 to 1000	Cn1nc(-c2ncco2)cc1Oc1cc(C#N)ccc1-c1ccc([C@H](O)CN)cn1 [compound 588, 4-[5-[(1S)-2-amino-1-hydroxyethyl]pyridin-2-yl]-3-[2-methyl-5-(1,3-oxazol-2-yl)pyrazol-3-yl]oxybenzonitrile]	–
< 10	Cc1nn(-c2ccccn2)cc1Cc1cc(C#N)ccc1-c1ncc(CCN)cn1 [compound 1202, 4-[5-(2-aminoethyl)pyrimidin-2-yl]-3-[(3-methyl-1-pyridin-2-ylpyrazol-4-yl)methyl]benzonitrile]	–
> 1000	C#CCOc1cc(Oc2cc(C#N)ccc2-c2ncc(CCN)cn2)nc(C)n1 [compound 926, 4-[5-(2-aminoethyl)pyrimidin-2-yl]-3-(2-methyl-6-prop-2-ynoxypyrimidin-4-yl)oxybenzonitrile]	–
10 to 1000	Cc1c(Oc2cc(C#N)ccc2-c2ncc(CCN)cn2)cnn1CC(C)C [compound 804, 4-[5-(2-aminoethyl)pyrimidin-2-yl]-3-[5-methyl-1-(2-methylpropyl)pyrazol-4-yl]oxybenzonitrile]	–
< 10	Cn1nc(N2CCCCC2)cc1Oc1cc(C#N)ccc1-c1ncc(CCN)cn1 [compound 627, 4-[5-(2-aminoethyl)pyrimidin-2-yl]-3-(2-methyl-5-piperidin-1-ylpyrazol-3-yl)oxybenzonitrile]	–
> 1000	Cc1nc(Oc2cc(C#N)ccc2-c2ncc(CN)cn2)cc(OC2CC2)n1 [compound 898, 4-[5-(aminomethyl)pyrimidin-2-yl]-3-(6-cyclopropyloxy-2-methylpyrimidin-4-yl)oxybenzonitrile]	–
10 to 1000	Cn1nc(COC2CCCC2)cc1Oc1cc(C#N)ccc1-c1ccc(CCN)cn1 [Compound 245, 4-[5-(2-aminoethyl)pyridin-2-yl]-3-[5-(cyclopentyloxymethyl)-2-methylpyrazol-3-yl]oxybenzonitrile]	–
> 1000	Cn1nc(-c2ccccn2)cc1Oc1cc(C#N)ccc1-c1ncc(CNC2(C)COC2)cn1 [compound 665, 4-[5-[[(3-methyloxetan-3-yl)amino]methyl]pyrimidin-2-yl]-3-(2-methyl-5-pyridin-2-ylpyrazol-3-yl)oxybenzonitrile]	–
